Data reported in PMC5218480 (PLoS ONE, 2017).

Test system: MV-4-11 cells
Experiment: Gene expression microarray analysis (Affymetrix PrimeView) and GSEA
Type: cell-based, human
Design: RFU PODN (11730768_x_at) / Fold change /veh PODN (11730768_x_at) / RFU LINC00158 (11744669_a_at) / Fold change /veh LINC00158 (11744669_a_at) / RFU DUSP10 (11751237_a_at) / Fold change /veh DUSP10 (11751237_a_at) / RFU ID3 (11757404_x_at) / Fold change /veh ID3 (11757404_x_at) / RFU PLEKHG5 (11737974_s_at) / Fold change /veh PLEKHG5 (11737974_s_at) / RFU LRRC4B (11730491_at) / Fold change /veh LRRC4B (11730491_at) / RFU GIMAP4 (11747438_a_at) / Fold change /veh GIMAP4 (11747438_a_at) / RFU KRT8 (11758183_x_at) / Fold change /veh KRT8 (11758183_x_at) / RFU CNN1 (11734310_a_at) / Fold change /veh CNN1 (11734310_a_at) / RFU VPS37D (11726825_at) / Fold change /veh VPS37D (11726825_at) / RFU C10orf10 (11716522_x_at) / Fold change /veh C10orf10 (11716522_x_at) / RFU KIR2DL2 /// KIR2DL4 /// KIR2DL5A /// KIR2DL5B /// KIR2DS1 /// KIR2DS2 /// KIR2DS3 /// KIR2DS4 /// KIR3DL3 /// KIR3DL3 /// KIR3DS1 (11738374_at) / Fold change /veh KIR2DL2 /// KIR2DL4 /// KIR2DL5A /// KIR2DL5B /// KIR2DS1 /// KIR2DS2 /// KIR2DS3 /// KIR2DS4 /// KIR3DL3 /// KIR3DL3 /// KIR3DS1 (11738374_at) / RFU C1QL1 (11718748_at) / Fold change /veh C1QL1 (11718748_at) / RFU TMPRSS4 (11747572_a_at) / Fold change /veh TMPRSS4 (11747572_a_at) / RFU HAMP (11756126_x_at) / Fold change /veh HAMP (11756126_x_at) / RFU RNFT2 (11725882_a_at) / Fold change /veh RNFT2 (11725882_a_at) / RFU NR4A2 (11747474_a_at) / Fold change /veh NR4A2 (11747474_a_at) / RFU ABCC12 (11746883_a_at) / Fold change /veh ABCC12 (11746883_a_at) / RFU TMEM136 (11760407_x_at) / Fold change /veh TMEM136 (11760407_x_at) / RFU CLDN22 /// WWC2 (11732394_at) / Fold change /veh CLDN22 /// WWC2 (11732394_at) / RFU HLA-DPB1 (11760878_x_at) / Fold change /veh HLA-DPB1 (11760878_x_at) / RFU SPINT1 (11716480_a_at) / Fold change /veh SPINT1 (11716480_a_at) / RFU GAP43 (11754022_s_at) / Fold change /veh GAP43 (11754022_s_at) / RFU A4GNT (11735810_at) / Fold change /veh A4GNT (11735810_at) / RFU PRB3 (11715151_x_at) / Fold change /veh PRB3 (11715151_x_at) / RFU TUBB4B (11761932_at) / Fold change /veh TUBB4B (11761932_at) / RFU CAPN14 (11732068_a_at) / Fold change /veh CAPN14 (11732068_a_at) / RFU TMCC2 (11721928_a_at) / Fold change /veh TMCC2 (11721928_a_at) / RFU IRGQ (11745062_a_at) / Fold change /veh IRGQ (11745062_a_at) / RFU FAM174B (11720279_a_at) / Fold change /veh FAM174B (11720279_a_at) / RFU TMPRSS4 (11748680_a_at) / Fold change /veh TMPRSS4 (11748680_a_at) / RFU FAM212B (11763350_a_at) / Fold change /veh FAM212B (11763350_a_at) / RFU PLEKHG5 (11743358_a_at) / Fold change /veh PLEKHG5 (11743358_a_at) / RFU ZSCAN30 (11745921_a_at) / Fold change /veh ZSCAN30 (11745921_a_at) / RFU CMKLR1 (11741424_a_at) / Fold change /veh CMKLR1 (11741424_a_at) / RFU LOC101060620 /// MAPK8IP1 (11723275_at) / Fold change /veh LOC101060620 /// MAPK8IP1 (11723275_at) / RFU SPTSSB (11747773_x_at) / Fold change /veh SPTSSB (11747773_x_at) / RFU PRSS12 (11739890_at) / Fold change /veh PRSS12 (11739890_at) / RFU BIN1 (11741810_x_at) / Fold change /veh BIN1 (11741810_x_at) / RFU WNT11 (11732464_a_at) / Fold change /veh WNT11 (11732464_a_at) / RFU C10orf10 (11716521_a_at) / Fold change /veh C10orf10 (11716521_a_at) / RFU C5orf56 (11738089_at) / Fold change /veh C5orf56 (11738089_at) / RFU CYB561 (11721691_x_at) / Fold change /veh CYB561 (11721691_x_at) / RFU ANKRD19P (11752326_a_at) / Fold change /veh ANKRD19P (11752326_a_at) / RFU OR2T12 /// OR2T33 /// OR2T8 (11738714_s_at) / Fold change /veh OR2T12 /// OR2T33 /// OR2T8 (11738714_s_at) / RFU VCAN (11748164_a_at) / Fold change /veh VCAN (11748164_a_at) / RFU JSRP1 (11732532_at) / Fold change /veh JSRP1 (11732532_at) / RFU KRTAP10-11 (11738290_x_at) / Fold change /veh KRTAP10-11 (11738290_x_at) / RFU MYO3A (11730013_a_at) / Fold change /veh MYO3A (11730013_a_at) / RFU EBF3 (11725865_a_at) / Fold change /veh EBF3 (11725865_a_at) / RFU CAMK2N1 (11719241_x_at) / Fold change /veh CAMK2N1 (11719241_x_at) / RFU C5orf56 (11738088_a_at) / Fold change /veh C5orf56 (11738088_a_at) / RFU OLFML3 (11715873_a_at) / Fold change /veh OLFML3 (11715873_a_at) / RFU LOC100653217 /// NTM (11731650_a_at) / Fold change /veh LOC100653217 /// NTM (11731650_a_at) / RFU MAPK11 (11762145_a_at) / Fold change /veh MAPK11 (11762145_a_at) / RFU FIZ1 (11724087_x_at) / Fold change /veh FIZ1 (11724087_x_at) / RFU OASL (11726364_x_at) / Fold change /veh OASL (11726364_x_at) / RFU SOX15 (11748057_x_at) / Fold change /veh SOX15 (11748057_x_at) / RFU CD79A (11719716_a_at) / Fold change /veh CD79A (11719716_a_at) / RFU HIST1H1D (11736915_at) / Fold change /veh HIST1H1D (11736915_at) / RFU CASKIN2 (11723855_a_at) / Fold change /veh CASKIN2 (11723855_a_at) / RFU LOC730098 (11760151_x_at) / Fold change /veh LOC730098 (11760151_x_at) / RFU OR4N2 (11742367_at) / Fold change /veh OR4N2 (11742367_at) / RFU PRRT2 (11749266_a_at) / Fold change /veh PRRT2 (11749266_a_at) / RFU SNX32 (11753110_a_at) / Fold change /veh SNX32 (11753110_a_at) / RFU CDHR5 (11726645_a_at) / Fold change /veh CDHR5 (11726645_a_at) / RFU RCAN1 (11760418_a_at) / Fold change /veh RCAN1 (11760418_a_at) / RFU FAM167A (11723789_a_at) / Fold change /veh FAM167A (11723789_a_at) / RFU FAM26E (11764081_at) / Fold change /veh FAM26E (11764081_at) / RFU ISYNA1 (11749810_s_at) / Fold change /veh ISYNA1 (11749810_s_at) / RFU ACY1 (11761880_at) / Fold change /veh ACY1 (11761880_at) / RFU 11764098_at / Fold change /veh 11764098_at / RFU SAMD14 (11745864_x_at) / Fold change /veh SAMD14 (11745864_x_at) / RFU NPB (11741838_a_at) / Fold change /veh NPB (11741838_a_at) / RFU TMPRSS6 (11731388_a_at) / Fold change /veh TMPRSS6 (11731388_a_at) / RFU KRTAP10-2 (11738614_at) / Fold change /veh KRTAP10-2 (11738614_at) / RFU ARHGAP8 /// PRR5-ARHGAP8 (11727945_x_at) / Fold change /veh ARHGAP8 /// PRR5-ARHGAP8 (11727945_x_at) / RFU KRTAP5-7 /// NADSYN1 (11734609_at) / Fold change /veh KRTAP5-7 /// NADSYN1 (11734609_at) / RFU RASL12 (11751679_a_at) / Fold change /veh RASL12 (11751679_a_at) / RFU CDKN2B (11736163_a_at) / Fold change /veh CDKN2B (11736163_a_at) / RFU PRF1 (11729649_at) / Fold change /veh PRF1 (11729649_at) / RFU, ZNF638 /// ZNF638-IT1 / Fold change vs veh, ZNF638 /// ZNF638-IT1 / RFU, PANK3 / Fold change vs veh, PANK3 / RFU, SH3YL1 / Fold change vs veh, SH3YL1 / RFU, ZEB2 / Fold change vs veh, ZEB2 / RFU, NRIP1 / Fold change vs veh, NRIP1 / RFU, PTTG1IP / Fold change vs veh, PTTG1IP / RFU, CAPN2 / Fold change vs veh, CAPN2 / RFU, MED14 / Fold change vs veh, MED14 / RFU, SNORA58 / Fold change vs veh, SNORA58 / RFU, C1orf63 / Fold change vs veh, C1orf63 / RFU, LRRFIP1 / Fold change vs veh, LRRFIP1 / RFU, NDUFAF7 / Fold change vs veh, NDUFAF7 / RFU, SLC12A2 / Fold change vs veh, SLC12A2 / RFU, IBTK / Fold change vs veh, IBTK / RFU, ESF1 / Fold change vs veh, ESF1 / Fold change vs veh, TMEM50B / RFU, TAOK1 / Fold change vs veh, TAOK1 / RFU, ACBD3 / Fold change vs veh, ACBD3 / RFU, TMA16 / Fold change vs veh, TMA16 / RFU, RWDD3 / Fold change vs veh, RWDD3 / RFU, BCAT1 / Fold change vs veh, BCAT1 / RFU, EDEM3 / Fold change vs veh, EDEM3 / RFU, TMEM33 / Fold change vs veh, TMEM33 / RFU, WDR75 / Fold change vs veh, WDR75 / RFU, AHCTF1 / Fold change vs veh, AHCTF1 / RFU, TFRC / Fold change vs veh, TFRC / RFU, ZDHHC17 / Fold change vs veh, ZDHHC17 / RFU, NOM1 / Fold change vs veh, NOM1 / RFU, ARL8B / Fold change vs veh, ARL8B / RFU, ZBTB11 / Fold change vs veh, ZBTB11 / RFU, TAMM41 / Fold change vs veh, TAMM41 / RFU, KIAA1704 /// LOC100996395 / Fold change vs veh, KIAA1704 /// LOC100996395 / RFU, ING1 / Fold change vs veh, ING1 / RFU, TRMT61B / Fold change vs veh, TRMT61B / RFU, FUBP3 / Fold change vs veh, FUBP3 / RFU, TP53 / Fold change vs veh, TP53 / RFU, TNKS2 / Fold change vs veh, TNKS2 / RFU, ZFP14 / Fold change vs veh, ZFP14 / RFU, ACTR2 / Fold change vs veh, ACTR2 / RFU, PPP3R1 / Fold change vs veh, PPP3R1 / RFU, PIK3R1 / Fold change vs veh, PIK3R1 / RFU, HNRNPA1 / Fold change vs veh, HNRNPA1 / RFU, RNF170 / Fold change vs veh, RNF170 / RFU, ZNF28 / Fold change vs veh, ZNF28 / RFU, RNGTT / Fold change vs veh, RNGTT / RFU, OGT / Fold change vs veh, OGT / RFU, BRD1 / Fold change vs veh, BRD1 / RFU, MARS / Fold change vs veh, MARS / RFU, ZNF655 / Fold change vs veh, ZNF655 / RFU, FAHD1 / Fold change vs veh, FAHD1 / RFU, BDP1 / Fold change vs veh, BDP1 / RFU, LRRCC1 / Fold change vs veh, LRRCC1 / RFU, ARID1A / Fold change vs veh, ARID1A / RFU, ZNF146 / Fold change vs veh, ZNF146 / RFU, ZNF330 / Fold change vs veh, ZNF330 / RFU, GPN3 / Fold change vs veh, GPN3 / RFU, C9orf123 / Fold change vs veh, C9orf123 / RFU, N4BP2L2 / Fold change vs veh, N4BP2L2 / RFU, ARFIP1 / Fold change vs veh, ARFIP1 / RFU, FAM179B / Fold change vs veh, FAM179B / RFU, BCL10 / Fold change vs veh, BCL10 / RFU, UHRF1BP1L / Fold change vs veh, UHRF1BP1L / RFU, BET1 / Fold change vs veh, BET1 / RFU, CNOT2 / Fold change vs veh, CNOT2 / RFU, ZNF268 / Fold change vs veh, ZNF268 / Fold change vs veh, ZNF507 / RFU, DGCR2 / Fold change vs veh, DGCR2 / RFU, WDSUB1 / Fold change vs veh, WDSUB1 / Fold change vs veh, HSP90B1 /// MIR3652 / RFU, ADSS / Fold change vs veh, ADSS / RFU, GK / Fold change vs veh, GK / RFU, ZNF148 / Fold change vs veh, ZNF148 / RFU, TAF9 / Fold change vs veh, TAF9 / RFU, SLC1A5 / Fold change vs veh, SLC1A5 / RFU, SLMO2 / Fold change vs veh, SLMO2 / RFU, ABCC4 / Fold change vs veh, ABCC4 / RFU, LOC101060439 /// RAP1B / Fold change vs veh, LOC101060439 /// RAP1B / RFU, RFX7 / Fold change vs veh, RFX7 / RFU, GTPBP10 / Fold change vs veh, GTPBP10 / RFU, CNEP1R1 / Fold change vs veh, CNEP1R1 / RFU, BIVM-ERCC5 /// ERCC5 / Fold change vs veh, BIVM-ERCC5 /// ERCC5 / RFU, ILF3 / Fold change vs veh, ILF3 / RFU 11762660_at / Fold change /veh 11762660_at / RFU VCAN (11757783_s_at) / Fold change /veh VCAN (11757783_s_at) / RFU DDX43 (11728927_at) / Fold change /veh DDX43 (11728927_at) / RFU KRT8 (11758188_x_at) / Fold change /veh KRT8 (11758188_x_at) / RFU NKD1 (11759106_at) / Fold change /veh NKD1 (11759106_at) / RFU SRD5A1 (11742802_a_at) / Fold change /veh SRD5A1 (11742802_a_at) / RFU TPSAB1 /// TPSB2 (11721975_s_at) / Fold change /veh TPSAB1 /// TPSB2 (11721975_s_at) / RFU GSTM3 (11746129_a_at) / Fold change /veh GSTM3 (11746129_a_at) / RFU IL23R (11737362_x_at) / Fold change /veh IL23R (11737362_x_at) / RFU TMEM51 (11727254_a_at) / Fold change /veh TMEM51 (11727254_a_at) / RFU PIWIL2 (11732686_x_at) / Fold change /veh PIWIL2 (11732686_x_at) / RFU ORM1 (11744905_x_at) / Fold change /veh ORM1 (11744905_x_at) / RFU CCDC152 (11743942_at) / Fold change /veh CCDC152 (11743942_at) / RFU ECM1 (11717891_a_at) / Fold change /veh ECM1 (11717891_a_at) / RFU IL23R (11748794_a_at) / Fold change /veh IL23R (11748794_a_at) / RFU TNFAIP8L3 (11732012_x_at) / Fold change /veh TNFAIP8L3 (11732012_x_at) / RFU MBOAT4 (11741988_at) / Fold change /veh MBOAT4 (11741988_at) / RFU 11764193_at / Fold change /veh 11764193_at / RFU TMEM53 (11763286_at) / Fold change /veh TMEM53 (11763286_at) / RFU MAGEB2 (11727129_at) / Fold change /veh MAGEB2 (11727129_at) / RFU TMEM200A (11744735_a_at) / Fold change /veh TMEM200A (11744735_a_at) / RFU CCDC152 (11751479_a_at) / Fold change /veh CCDC152 (11751479_a_at) / RFU FAM211A (11726209_a_at) / Fold change /veh FAM211A (11726209_a_at) / RFU RGS16 (11746705_a_at) / Fold change /veh RGS16 (11746705_a_at) / RFU VCAN (11755009_s_at) / Fold change /veh VCAN (11755009_s_at) / RFU RHOB (11743442_s_at) / Fold change /veh RHOB (11743442_s_at) / RFU RGS16 (11720943_a_at) / Fold change /veh RGS16 (11720943_a_at) / RFU RGS16 (11720944_at) / Fold change /veh RGS16 (11720944_at) / RFU, VPS4B / Fold change vs veh, VPS4B / RFU, CREB1 / Fold change vs veh, CREB1 / RFU, DNAJC13 / Fold change vs veh, DNAJC13 / RFU, GNAQ / Fold change vs veh, GNAQ / RFU, CDK5R1 / Fold change vs veh, CDK5R1 / RFU, ZRANB3 / Fold change vs veh, ZRANB3 / RFU, CUL4A / Fold change vs veh, CUL4A / RFU, CCNY / Fold change vs veh, CCNY / RFU, UFL1 / Fold change vs veh, UFL1 / RFU, COG3 / Fold change vs veh, COG3 / RFU, DIAPH2 / Fold change vs veh, DIAPH2 / RFU, SKA2 / Fold change vs veh, SKA2 / RFU, AFF3 / Fold change vs veh, AFF3 / RFU, LMF1 / Fold change vs veh, LMF1 / RFU, IPO11 / Fold change vs veh, IPO11 / RFU, DFFB / Fold change vs veh, DFFB / RFU, FOXP1 / Fold change vs veh, FOXP1 / RFU, CARD8 / Fold change vs veh, CARD8 / RFU, STRN3 / Fold change vs veh, STRN3 / RFU, ADK / Fold change vs veh, ADK / RFU, RASSF2 / Fold change vs veh, RASSF2 / RFU, WIPF1 / Fold change vs veh, WIPF1 / RFU, LARP1B / Fold change vs veh, LARP1B / RFU, RASA1 / Fold change vs veh, RASA1 / RFU, RB1 / Fold change vs veh, RB1 / RFU, PPFIA1 / Fold change vs veh, PPFIA1 / RFU, MAT2A / Fold change vs veh, MAT2A / RFU, CCT5 / Fold change vs veh, CCT5 / RFU, WDR92 / Fold change vs veh, WDR92 / RFU, CUX1 / Fold change vs veh, CUX1 / RFU, TTC7A / Fold change vs veh, TTC7A / RFU, TMEM135 / Fold change vs veh, TMEM135 / RFU, DEPTOR / Fold change vs veh, DEPTOR / RFU, CPM / Fold change vs veh, CPM / RFU, DNAJB6 / Fold change vs veh, DNAJB6 / RFU, CACNA2D3 / Fold change vs veh, CACNA2D3 / RFU, DTX4 / Fold change vs veh, DTX4 / RFU, TFCP2 / Fold change vs veh, TFCP2 / RFU, GMCL1 /// GMCL1P1 / Fold change vs veh, GMCL1 /// GMCL1P1 / RFU, AEBP2 / Fold change vs veh, AEBP2 / RFU, SNHG1 /// SNORD22 /// SNORD25 /// SNORD26 /// SNORD27 /// SNORD28 /// SNORD29 /// SNORD31 / Fold change vs veh, SNHG1 /// SNORD22 /// SNORD25 /// SNORD26 /// SNORD27 /// SNORD28 /// SNORD29 /// SNORD31 / Fold change (Aza/veh), C12orf56 (ProbeSet 11735607_a_at) / Fold change (ACY-1035/veh), C12orf56 (ProbeSet 11735607_a_at) / Fold change (Aza/veh), FGFR1OP (ProbeSet 11751329_s_at) / Fold change (ACY-1035/veh), FGFR1OP (ProbeSet 11751329_s_at) / Fold change (Aza/veh), VPS36 (ProbeSet 11739960_a_at) / Fold change (ACY-1035/veh), VPS36 (ProbeSet 11739960_a_at) / RFU SYPL1 (11715823_x_at) / Fold change /veh SYPL1 (11715823_x_at) / RFU IGFBP7 (11715501_s_at) / Fold change /veh IGFBP7 (11715501_s_at) / RFU REEP3 (11722064_at) / Fold change /veh REEP3 (11722064_at) / RFU IGLL1 (11728026_x_at) / Fold change /veh IGLL1 (11728026_x_at): dose or concentration left out as unconfirmed
Conditions: ProbeSet 11718977_a_at; LIST B

## Nc1ncn([C@@H]2O[C@H](CO)[C@@H](O)[C@H]2O)c(=O)n1 [azacitidine]
  Fold change vs veh, CAPN2: 0.92
